Source: US20170202218A1, “Materials for Disinfection Produced by Non-Thermal Plasma” (DREXEL UNIVERSITY, priority 2010, published 2017)

Assays:
[1] = test system: E. coli; settings: dispersed for 15 sec, no corona discharge applied
Excerpt: An agar place of bacterial (containing colonies of 10^5 E. coli) was placed on top of a grounded metal plate.

[2] = test system: E coli; settings: in solution, after only 30 seconds; cited from earlier work

Row | Compound | disinfection of E. coli on agar plate [1] | log reduction in E coli [2]
1 | CCO [alcohol, ethanol] | some spotty effects | 
2 | [H]/N=C(\N/C(=N/[H])NCCCCCCNC(=N)NC(=N)Nc1ccc(Cl)cc1)Nc1ccc(Cl)cc1 [chlorhexidine] |  | 3.5 log
